Test results published in US8772499B2, “TRPV3 modulators” (AbbVie Inc., priority 2011, dated 2014).
Where two headings read alike, the source gives them in different places.

Target: T1, human TRPV3 (Homo sapiens, UniProt Q8NET8)
T1 construct: expressed in transfected cells
T1 sequence (Q8NET8 1-790): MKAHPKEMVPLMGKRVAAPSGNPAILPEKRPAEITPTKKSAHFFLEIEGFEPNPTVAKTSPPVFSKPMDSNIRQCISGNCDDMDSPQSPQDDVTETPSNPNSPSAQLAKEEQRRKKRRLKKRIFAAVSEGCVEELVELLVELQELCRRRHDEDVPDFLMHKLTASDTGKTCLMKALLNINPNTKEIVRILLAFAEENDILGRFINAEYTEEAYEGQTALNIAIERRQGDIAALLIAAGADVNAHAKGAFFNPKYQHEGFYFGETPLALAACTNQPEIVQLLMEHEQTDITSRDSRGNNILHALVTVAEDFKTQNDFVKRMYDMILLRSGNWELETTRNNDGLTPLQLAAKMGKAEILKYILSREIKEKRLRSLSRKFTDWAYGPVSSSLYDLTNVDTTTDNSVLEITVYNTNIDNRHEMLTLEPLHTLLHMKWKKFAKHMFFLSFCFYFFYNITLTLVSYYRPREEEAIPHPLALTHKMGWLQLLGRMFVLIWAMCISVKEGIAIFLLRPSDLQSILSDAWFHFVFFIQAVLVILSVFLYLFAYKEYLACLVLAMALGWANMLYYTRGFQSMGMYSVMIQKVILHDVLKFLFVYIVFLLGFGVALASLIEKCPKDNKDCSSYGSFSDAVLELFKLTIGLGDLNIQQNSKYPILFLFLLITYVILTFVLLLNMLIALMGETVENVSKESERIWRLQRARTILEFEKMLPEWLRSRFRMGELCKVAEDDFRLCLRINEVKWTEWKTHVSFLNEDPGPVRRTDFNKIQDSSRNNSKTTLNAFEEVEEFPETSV
Experiment: In vitro antagonism of recombinant human TRPV3 activation (FLIPR Tetra calcium assay)
Assay type: cell-based
Conditions: HEK293 cells stably expressing human TRPV3, agonist 2-APB at 80 μM
Experimental: Test compounds were evaluated for ability to antagonize the activation of recombinant human TRPV3 using FLIPR® Tetra cellular screening. Specifically, on the day prior to the experiment recombinant HEK293 cells that stably express human TRPV3 were removed from tissue culture flasks and plated in growth medium at 20,000 cells/well into Poly-d-lysine coated black/clear 384-well Plate (Corning, 3845) using a Multidrop® dispenser (ThermoScientific, Waltham, Mass.). Prior to the start of the assay, the medium was removed by aspiration, and cells were loaded with 30 μL no-wash FLIPR® Calcium-4 dye (λEX=470-495 nm, λEM=515-575 nm; Molecular Devices, Sunnyvale, Calif.). The cells were then incubated for 90-120 minutes in the dark prior to addition of the test compound.
A double-addition protocol was used. The test compound (i.e., the TRPV3 antagonist) was added at the 10 second time point, followed by the addition of a TRPV3 agonist three minutes later. Each test compound evaluated was first dissolved in DMSO to prepare a 10 mM stock solution. A solution (5×) of the test compound was then prepared in DPBS (Dulbecco's Phosphate Buffered Saline) and 10 μl, of that solution was added to the cells at a delivery rate of 40 μL/sec. The TRPV3 agonist used to activate human TRPV3 expressed by the […] was 2-aminoethoxy-diphenyl borate (2-APB; Tocris Cookson, Ellisville, Mo.) at 80 μM. Final assay volume was 50 μl, Total length of an experimental run was 10 minutes.
Changes in fluorescence were measured over time using the FLIPR® instrument. The intensity of the fluorescence was captured and digitally transferred to an interfaced computer. The maximum response minus minimum response was calculated and expressed as the percentage of the maximum 2-APB response in the absence of antagonist. The concentration of 2-APB corresponds to its EC80.
Table 1 reports the IC50 values measured for the test compounds as human TRPV3 antagonists. […] Actual measured values are shown parenthetically after the reported range. In most cases, the values reported are average values from at least two runs (i.e., n≧2).

[1] = actual measured value shown parenthetically, in most cases average of at least two runs, read-out: IC50
[2] = reported range, read-out: IC50 (range class)

SMILES	IC50 [1]	IC50 [2]
O=C1CC(c2ccc(OC(F)(F)F)cc2)([C@H](O)c2ccccn2)C1 (single isomer, unassigned) [Example 251]	1.97 µM	–
CC1(O)CC(c2ccnc(C(F)(F)F)c2)(C(O)c2ccccn2)C1 (single isomer, unassigned) [Example 302]	0.95 µM	–
OC(c1ccccn1)C1(c2cc(F)cc(C(F)(F)F)c2)CCC1 (centres unmarked) [Example 14, {1-[3-fluoro-5-(trifluoromethyl)phenyl]cyclobutyl}(pyridin-2-yl)methanol]	> 20 µM	> 20 µM
CS(=O)(=O)c1ccc(C2(C(O)c3ccccn3)CCC2)cc1 (centres unmarked) [Example 16, {1-[4-(methylsulfonyl)phenyl]cyclobutyl}(pyridin-2-yl)methanol]	> 20 µM	> 20 µM
OC(c1ccccn1)C1(c2ccc(-c3ccccc3)cc2)CCC1 (centres unmarked) [Example 22, [1-(1,1′-biphenyl-4-yl)cyclobutyl](pyridin-2-yl)methanol]	> 20 µM	> 20 µM
OC(c1ncccn1)C1(c2ccc(OC(F)(F)F)cc2)CCC1 (centres unmarked) [Example 31, pyrimidin-2-yl{1-[4-(trifluoromethoxy)phenyl]cyclobutyl}methanol]	3.08 µM	–
OC(c1ncccn1)C1(c2ccccc2F)CCC1 (centres unmarked) [Example 32, [1-(2-fluorophenyl)cyclobutyl](pyrimidin-2-yl)methanol]	> 20 µM	> 20 µM
OC(c1ncccn1)C1(c2cccc(F)c2)CCC1 (centres unmarked) [Example 33, [1-(3-fluorophenyl)cyclobutyl](pyrimidin-2-yl)methanol]	8.5 µM	–
OC(c1ncccn1)C1(c2ccc(F)cc2)CCC1 (centres unmarked) [Example 34, [1-(4-fluorophenyl)cyclobutyl](pyrimidin-2-yl)methanol]	> 20 µM	> 20 µM
OC(c1ncccn1)C1(c2ccc(F)c(F)c2)CCC1 (centres unmarked) [Example 35, [1-(3,4-difluorophenyl)cyclobutyl](pyrimidin-2-yl)methanol]	10.2 µM	–
OC(c1ncccn1)C1(c2ccccc2OC(F)(F)F)CCC1 (centres unmarked) [Example 36, pyrimidin-2-yl{1-[2-(trifluoromethoxy)phenyl]cyclobutyl}methanol]	5.18 µM	–
CC(c1cccc(Cl)c1)C1(C(O)c2ccccn2)CCC1 (centres unmarked) [Example 44, {1-[1-(3-chlorophenyl)ethyl]cyclobutyl}(pyridin-2-yl)methanol]	8 µM	–
CC(c1cccc(F)c1)C1(C(O)c2ccccn2)CCC1 (centres unmarked) [Example 47, {1-[1-(3-fluorophenyl)ethyl]cyclobutyl}(pyridin-2-yl)methanol]	2.22 µM	–
CC(c1ccccc1F)C1(C(O)c2ccccn2)CCC1 (centres unmarked) [Example 48, {1-[1-(2-fluorophenyl)ethyl]cyclobutyl}(pyridin-2-yl)methanol]	5.68 µM	–
CC(c1ccccc1)C1(C(O)c2ccccn2)CCC1 (centres unmarked) [Example 51, [1-(1-phenylethyl)cyclobutyl](pyridin-2-yl)methanol]	8.25 µM	–
CC(c1ccc(C(F)(F)F)cc1)C1(C(O)c2ccccn2)CCC1 (centres unmarked) [Example 53, pyridin-2-yl(1-{1-[4-(trifluoromethyl)phenyl]ethyl}cyclobutyl)methanol]	1.75 µM	–
OC(c1ccccn1)C1(c2ccccc2)CCOCC1 (centres unmarked) [Example 60, (4-phenyltetrahydro-2H-pyran-4-yl)(pyridin-2-yl)methanol]	7.55 µM	–
OC(c1ccccn1)C1(c2cccc(F)c2)CCOCC1 (centres unmarked) [Example 61, [4-(3-fluorophenyl)tetrahydro-2H-pyran-4-yl](pyridin-2-yl)methanol]	7.54 µM	–
OC(c1ccccn1)C1(c2ccc(F)cc2)CCOCC1 (centres unmarked) [Example 62, [4-(4-fluorophenyl)tetrahydro-2H-pyran-4-yl](pyridin-2-yl)methanol]	11.8 µM	–

SMILES	IC50 [1]	IC50 [2]
OC(c1ccccn1)C1(c2ccc(F)c(F)c2)CCOCC1 (centres unmarked) [Example 63, [4-(3,4-difluorophenyl)tetrahydro-2H-pyran-4-yl](pyridin-2-yl)methanol]	7.17 µM	–
OC(c1ccccn1)C1(c2ccc(Cl)cc2)CCOCC1 (centres unmarked) [Example 64, [4-(4-chlorophenyl)tetrahydro-2H-pyran-4-yl](pyridin-2-yl)methanol]	2.34 µM	–
OC(c1ccccn1)C1(c2ccc(C(F)(F)F)cc2)CCOCC1 (centres unmarked) [Example 65, pyridin-2-yl{4-[4-(trifluoromethyl)phenyl]tetrahydro-2H-pyran-4-yl}-methanol]	2.26 µM	–
OC(CC1(c2ccccc2)CCC1)c1ccccn1 (centres unmarked) [Example 68, 2-(1-phenylcyclobutyl)-1-(pyridin-2-yl)ethanol]	3.68 µM	–
OC(CC1(c2ccc(Cl)cc2)CCC1)c1ccccn1 (centres unmarked) [Example 69, 2-[1-(4-chlorophenyl)cyclobutyl]-1-(pyridin-2-yl)ethanol]	4.97 µM	–
OC(CC1(c2ccc(F)cc2)CCC1)c1ccccn1 (centres unmarked) [Example 70, 2-[1-(4-fluorophenyl)cyclobutyl]-1-(pyridin-2-yl)ethanol]	12 µM	–
OC(CC1(c2cccc(F)c2)CCC1)c1ccccn1 (centres unmarked) [Example 71, 2-[1-(3-fluorophenyl)cyclobutyl]-1-(pyridin-2-yl)ethanol]	2.13 µM	–
OC(CC1(c2cccc(Cl)c2)CCC1)c1ccccn1 (centres unmarked) [Example 72, 2-[1-(3-chlorophenyl)cyclobutyl]-1-(pyridin-2-yl)ethanol]	2.24 µM	–
OC(CC1(c2ccc(Cl)c(Cl)c2)CCC1)c1ccccn1 (centres unmarked) [Example 73, 2-[1-(3,4-dichlorophenyl)cyclobutyl]-1-(pyridin-2-yl)ethanol]	1.94 µM	–
OC(c1ccccn1)C1(c2ccc(C(F)(F)F)cc2)CCOC1 (centres unmarked) [Example 78, pyridin-2-yl{3-[4-(trifluoromethyl)phenyl]tetrahydrofuran-3-yl}methanol]	3.56 µM	–
N#Cc1ccc(C2(C(O)c3ccccn3)CCOC2)cc1 (centres unmarked) [Example 79, 4-{3-[hydroxy(pyridin-2-yl)methyl]tetrahydrofuran-3-yl}benzonitrile]	> 20 µM	> 20 µM
OC(c1ccccn1)C1(c2cccc(OC(F)(F)F)c2)CCOC1 (centres unmarked) [Example 80, pyridin-2-yl{3-[3-(trifluoromethoxy)phenyl]tetrahydrofuran-3-yl}methanol]	1.78 µM	–
N#Cc1cccc(C2(C(O)c3ccccn3)CCOC2)c1 (centres unmarked) [Example 81, 3-{3-[hydroxy(pyridin-2-yl)methyl]tetrahydrofuran-3-yl}benzonitrile]	> 20 µM	> 20 µM
COc1ccc(C2(C(O)c3ccccn3)CCOC2)cc1 (centres unmarked) [Example 83, [3-(4-methoxyphenyl)tetrahydrofuran-3-yl](pyridin-2-yl)methanol]	> 20 µM	> 20 µM
COc1ccc(C2(C(O)c3ccccn3)CCOC2)cc1OC (centres unmarked) [Example 84, [3-(3,4-dimethoxyphenyl)tetrahydrofuran-3-yl](pyridin-2-yl)methanol]	> 20 µM	> 20 µM
OC(c1ccccn1)C1(c2cccc(Cl)c2)COC1 (centres unmarked) [Example 86, [3-(3-chlorophenyl)oxetan-3-yl](pyridin-2-yl)methanol]	3.56 µM	–
OC(C1CCCc2cccnc21)C1(c2ccccc2C(F)(F)F)CCC1 (stereo not drawn) [Example 196, (syn)-5,6,7,8-tetrahydroquinolin-8-yl{1-[2-(trifluoromethyl)phenyl]-cyclobutyl}methanol]	> 20 µM	> 20 µM
NC1CCCCC1C(O)C1(c2ccc(C(F)(F)F)cc2)CCC1 (centres unmarked) [Example 207, (2-aminocyclohexyl) {1-[4-(trifluoromethyl)phenyl]cyclobutyl}methanol]	3.99 µM	–
